Experimental data reported in US20250206729A1, “DUAL RAF AND TUBULIN INHIBITORS AND METHODS OF USE THEREOF” (Deciphera Pharmaceuticals, LLC, priority 2023, published 2025).
Where two headings read alike, the source gives them in different places.

Assays:
[1] = system: HCT-116 cells; assay: HCT-116 cell proliferation assay; type: cell-based; details: for IC50: Homo sapiens
Protocol: HCT-116 cells (catalog #CCL-247) are obtained from the American Type Culture Collect (ATCC, Manassas, VA). Briefly, cells are grown in McCoy's 5A supplemented with 10% characterized fetal bovine serum (Invitrogen, Carlsbad, CA) and 1% Penicillin/Streptomycin/L-Glutamine at 37° C., 5% CO2, and 95% humidity. Cells are expanded until reaching 70-95% confluency at which point they are sub-cultured or harvested for assay use. A serial dilution of test compound is dispensed into a 384-well black clear bottom plate in triplicate. 375 cells are added per well in 50 μL complete growth medium in the 384-well plate. Plates are incubated for 67 to 72 h at 37° C., 5% CO2, and 95% humidity. At the end of the incubation, 40 μL of a […] solution of resazurin (Sigma, St. Louis, MO) in PBS is added to each well of the plate and plates are incubated for an additional 4 to 5 h at 37° C., 5% CO2, and 95% humidity. Plates are read on a Synergy2 or equivalent reader (Biotek, Winooski, VT) using an excitation of 540 nm and an emission of 600 nm. Data is analyzed using Prism software (Graphpad, San Diego, CA) to calculate IC50 values.

[2] = system: MiaPaca-2 cells; assay: MiaPaca-2 cell proliferation assay; type: cell-based; details: Homo sapiens, MIA PaCa-2
Protocol: Miapaca-2 cells (catalog #CRL-1420) are obtained from the American Type Culture Collect (ATTC, Manassas, VA). Briefly, cells were grown in DMEM supplemented with 10% characterized fetal bovine serum (Invitrogen, Carlsbad, CA), 2.5% New Zealand sourced horse serum and 1% Penicillin/Streptomycin/L-Glutamine at 37° C., 5% CO2, and 95% humidity. Cells are expanded until reaching 70-95% confluency at which point they are sub-cultured or harvested for assay use. A serial dilution of test compound is dispensed into a 384-well black clear bottom plate in triplicate. Seven hundred fifty cells are added per well in 50 μL complete growth medium in the 384-well plate. Plates are incubated for 67-72 h at 37° C., 5% CO2, and 95% humidity. At the end of the incubation, 10 μL of a 440 μM solution of resazurin (Sigma, St. Louis, MO) in PBS is added to each well of the plate and plates are incubated for an additional 5-6 h at 37° C., 5% CO2, and 95% humidity. Plates are read on a Synergy2 or equivalent reader (Biotek, Winooski VT) using an excitation of 540 nm and an emission of 600 nm. Data is analyzed using Prism software (GraphPad, San Diego, CA) to calculate IC50 values.

[3] = system: HPAF-II cells; assay: HPAF-II cell proliferation assay; type: cell-based; details: Homo sapiens
Protocol: (§1) HPAF-II cells (catalog #CRL-1997) are obtained from the American Type Culture Collect (ATCC, Manassas, VA). Briefly, cells are grown in Minimum Essential Media supplemented with 10% characterized fetal bovine serum (Invitrogen, Carlsbad, CA) and 1% Penicillin/Streptomycin/L-Glutamine at 37° C., 5% CO2, and 95% humidity. Cells are expanded until reaching 70-95% confluency at which point they are sub-cultured or harvested for assay use. A serial dilution of test compound is dispensed into a 384-well black clear bottom plate in triplicate. 750 cells are added per well in 50 μL complete growth medium in the 384-well plate. Plates are incubated for 115 to 120 h at 37° C., 5% CO2, and 95% humidity. At the end of the incubation, 40 μL of a […] solution of resazurin (Sigma, St. Louis, MO) in PBS is added to each well of the plate and plates are incubated for an additional 18 to 24 h at 37° C., 5% CO2, and 95% humidity. Plates are read on a Synergy2 or equivalent reader (Biotek, Winooski, VT) using an excitation of 540 nm and an emission of 600 nm. Data is analyzed using Prism software (Graphpad, San Diego, CA) to calculate IC50 values.

[4] = target: T1, C-Raf kinase (SEQ ID NO: 2) (Homo sapiens, UniProt P04049, Y340D/Y341D); assay: Biochemical assay for C-Raf (coupled pyruvate kinase/lactate dehydrogenase); details: 1 mM ATP; read-out: CRAF (inhibition of biochemical activity, IC50)
T1 construct: C-Raf residues 306-end; Y340D, Y341D with N-; GST (N); purchased Sigma
T1 sequence (P04049 307-648 Y340D/Y341D): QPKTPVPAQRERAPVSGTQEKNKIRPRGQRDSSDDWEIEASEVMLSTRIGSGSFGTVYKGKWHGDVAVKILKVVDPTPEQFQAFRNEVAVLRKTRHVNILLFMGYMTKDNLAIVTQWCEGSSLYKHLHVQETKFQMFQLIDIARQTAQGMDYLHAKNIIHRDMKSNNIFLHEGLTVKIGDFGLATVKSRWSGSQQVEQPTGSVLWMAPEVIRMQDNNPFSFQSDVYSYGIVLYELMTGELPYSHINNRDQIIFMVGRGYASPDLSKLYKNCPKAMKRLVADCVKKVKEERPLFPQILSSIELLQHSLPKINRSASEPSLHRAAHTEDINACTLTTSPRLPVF

[5] = target: T2, B-Raf kinase (SEQ ID NO: 1) (Homo sapiens, UniProt P15056); assay: Biochemical assay for B-Raf (coupled pyruvate kinase/lactate dehydrogenase); details: 1 mM ATP; read-out: BRAF (inhibition of biochemical activity, IC50)
T2 construct: GST (N); purchased Sigma
T2 sequence (P15056 416-766): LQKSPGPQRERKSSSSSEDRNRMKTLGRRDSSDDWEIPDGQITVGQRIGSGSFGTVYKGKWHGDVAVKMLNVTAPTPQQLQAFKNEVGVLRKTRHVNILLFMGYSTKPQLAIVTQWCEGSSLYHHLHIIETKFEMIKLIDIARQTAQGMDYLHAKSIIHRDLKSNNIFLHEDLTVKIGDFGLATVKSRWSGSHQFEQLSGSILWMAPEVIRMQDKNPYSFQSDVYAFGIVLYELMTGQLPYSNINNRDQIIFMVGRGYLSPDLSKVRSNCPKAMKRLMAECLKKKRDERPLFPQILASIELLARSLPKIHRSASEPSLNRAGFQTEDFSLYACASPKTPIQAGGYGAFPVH

[6] = system: Pa16c cells; assay: Pa16c cell proliferation assay; type: cell-based; details: 67 to 72 h incubation, resazurin; read-out: Pa16c (inhibition of cell proliferation, IC50)
Protocol: as §1, with “Pa16c” for “HPAF-II”, “cells” for “cells (catalog #CRL-1997)”, “Dr. Channing Der, University of North Carolina at Chapel Hill.” for “the American Type Culture Collect (ATCC, Manassas, VA).”, “Dulbecco's Modified Eagle Medium” for “Minimum Essential Media”, “67” for “115”, “72” for “120”

[7] = Table 4, mutant KRAS colorectal cancer cell line, anti-proliferative, read-out: HCT-116
[8] = Table 4, mutant KRAS pancreatic cancer cell line, anti-proliferative, read-out: MiaPaca-2
[9] = HCT-116, 67 to 72 h incubation, resazurin, read-out: HCT-116 (inhibition of cell proliferation, IC50)
[10] = 67-72 h incubation, resazurin, read-out: MiaPaca-2 (inhibition of cell proliferation, IC50)
[11] = HPAF-II, 115 to 120 h incubation, resazurin, read-out: HPAF-II (inhibition of cell proliferation, IC50)

| SMILES | IC50 [1, 7] [nM] | IC50 [2, 8] [nM] | IC50 ([3]; Table 4, mutant KRAS pancreatic cancer cell line, anti-proliferative, read-out: HPAF-II) [nM] | IC50 [1, 9] [nM] | IC50 [4] [nM] | IC50 [2, 10] [nM] | IC50 [5] [nM] | IC50 [6] [nM] | IC50 [3, 11] [nM] | HCT-116 (inhibition of cell proliferation, IC50) ([1]; 67 to 72 h incubation, resazurin) |
| --- | --- | --- | --- | --- | --- | --- | --- | --- | --- | --- |
| CC(C)(C)c1nc(-c2cccc(NS(=O)(=O)c3c(F)cccc3F)c2F)c(-c2ccnc(N)n2)s1 [Dabrafenib, dabrafenib, reference compound] | 1000 to 10000 | 1000 to 10000 | 1000 to 10000 |  |  |  |  |  |  |  |
| Cc1ccc(NC(=O)c2cc(C(F)(F)F)cnn2)cc1-c1ccnc(N2CCOCC2)c1 [Example 1, N-(4-methyl-3-(2-morpholinopyridin-4-yl)phenyl)-5-(trifluoromethyl)pyridazine-3-carboxamide] |  |  |  | 100 to 500 | 100 to 500 | < 100 | 100 to 500 | 100 to 500 | 100 to 500 |  |
| Cc1ccc(NC(=O)c2cc(C3CC3)cnn2)cc1-c1ccnc(N2CCOCC2)c1 [Example 2, 5-cyclopropyl-N-(4-methyl-3-(2-morpholinopyridin-4-yl)phenyl)pyridazine-3-carboxamide] |  |  |  | 100 to 500 | < 100 | 100 to 500 | 100 to 500 | 1000 to 10000 | 100 to 500 |  |
| Cc1ccc(NC(=O)c2cc(C(F)(F)F)cnn2)cc1-c1cc(C2CC2)nc(N2CCOCC2)c1 [Example 3] |  |  |  | 100 to 500 | 100 to 500 | < 100 | 100 to 500 | < 100 | 100 to 500 |  |
| Cc1cc(-c2cc(NC(=O)c3cc(C(F)(F)F)cnn3)ccc2C)cc(N2CCOCC2)n1 [Example 4] |  |  |  | 100 to 500 | < 100 | 100 to 500 | < 100 | < 100 | < 100 |  |
| Cc1ccc(NC(=O)c2ccc(C(F)(F)F)nn2)cc1-c1cc(N[C@H](C)CO)nc(N2CCOCC2)c1 [Example 5] |  |  |  | 1000 to 10000 | 500 to 1000 | 100 to 500 | 1000 to 10000 | 1000 to 10000 | 1000 to 10000 |  |
| Cc1ccc(NC(=O)c2cc(C(F)(F)F)cnn2)cc1-c1cc(N[C@H](C)CO)nc(N2CC3CC(C2)O3)c1 [Example 7] |  |  |  |  | 100 to 500 | < 100 | 100 to 500 | 500 to 1000 | < 100 | ++ ++ |
| Cc1ccc(NC(=O)c2cc(C(F)(F)F)cnn2)cc1-c1ccnc(N2CCOC(C(F)(F)F)C2)c1 (stereo not shown) [Example 8] |  |  |  | 100 to 500 | 1000 to 10000 | 100 to 500 | 1000 to 10000 | 500 to 1000 | 500 to 1000 |  |
| Cc1ccc(NC(=O)c2cncc(Cl)n2)cc1-c1cc(N[C@H](C)CO)nc(N2CCOCC2)c1 [Example 9] |  |  |  | 1000 to 10000 | 100 to 500 | 1000 to 10000 | 100 to 500 | 1000 to 10000 | 500 to 1000 |  |
| Cc1ccc(NC(=O)c2cc(C(F)(F)F)cnn2)cc1-c1nccc(N2CCOCC2)n1 [Example 10] |  |  |  | 1000 to 10000 | 1000 to 10000 | 1000 to 10000 | 1000 to 10000 | 1000 to 10000 | 1000 to 10000 |  |
| Cc1ccc(NC(=O)c2cnc(C(F)(F)F)nc2)cc1-c1cc(OCCO)nc(N2CCOCC2)c1 [Example 11] |  |  |  | 100 to 500 | 500 to 1000 | 100 to 500 | 1000 to 10000 | 500 to 1000 | 100 to 500 |  |
| Cc1ccc(NC(=O)c2cnc(C(F)(F)F)nc2)cc1-c1cc(N[C@H](C)CO)nc(N2CCOCC2)c1 [Example 12] |  |  |  | 1000 to 10000 | 100 to 500 | 500 to 1000 | 500 to 1000 | 1000 to 10000 | 1000 to 10000 |  |
| Cc1ccc(NC(=O)c2cncc(C(C)C)c2)cc1-c1cc(N[C@H](C)CO)nc(N2CCOCC2)c1 [Example 13] |  |  |  | 100 to 500 | < 100 | 500 to 1000 | < 100 | 1000 to 10000 | 500 to 1000 |  |
| Cc1ccc(NC(=O)c2cc(Cl)cnn2)cc1-c1cc(N[C@H](C)CO)nc(N2CCOCC2)c1 [Example 15] |  |  |  | < 100 | < 100 | < 100 | 100 to 500 | 100 to 500 | 100 to 500 |  |
| Cc1ccc(NC(=O)c2cncc(Cl)c2)cc1-c1cc(N[C@H](C)CO)nc(N2CCOCC2)c1 [Example 16] |  |  |  | 500 to 1000 | < 100 | 100 to 500 | < 100 | 1000 to 10000 | 500 to 1000 |  |
| Cc1ccc(NC(=O)c2cnc(C3CC3)nc2)cc1-c1cc(N[C@H](C)CO)nc(N2CCOCC2)c1 [Example 17] |  |  |  | 500 to 1000 | < 100 | 500 to 1000 | 100 to 500 | 1000 to 10000 | 500 to 1000 |  |
| Cc1ccc(NC(=O)c2cncc(C3CC3)c2)cc1-c1cc(N[C@H](C)CO)nc(N2CCOCC2)c1 [Example 18] |  |  |  | 100 to 500 | < 100 | 100 to 500 | < 100 | 1000 to 10000 | 100 to 500 |  |
| Cc1cc(-c2cc(NC(=O)c3cc(C4CC4)cnn3)ccc2C)cc(N2CCOCC2)n1 [Example 20] |  |  |  | 100 to 500 | < 100 | 100 to 500 | < 100 | 1000 to 10000 | 100 to 500 |  |
| Cc1ccc(NC(=O)c2cc(C(F)(F)F)cnn2)cc1-c1ccnc(N2C[C@@H](C)O[C@@H](C)C2)c1 [Example 84] |  |  |  | 1000 to 10000 | 1000 to 10000 | 1000 to 10000 | 1000 to 10000 |  | 1000 to 10000 |  |
| CCCS(=O)(=O)Nc1ccc(F)c(C(=O)c2c[nH]c3ncc(-c4ccc(Cl)cc4)cc23)c1F [Vemurafenib, vemurafenib, reference compound] | 1000 to 10000 | 1000 to 10000 |  |  |  |  |  |  |  |  |
